Results on five compounds are retold here after patent publication US20030130210A1, “Method for treating a patient with neoplasia by treatment with an anthracycline antibiotic” (priority 1998, published 2003).

Where only a bound is given, the exact number is not on record here.

The test system of data set [1] is HT-29 cells. The experiment in a line: Apoptosis by DNA fragmentation assay in HT-29 cells. It is filed as cell-based, human. The conditions noted are these: apoptosis inducing activity.
Data set [2] deals with HT-29 cells. The experiment in a line: Tumor cell growth inhibition in HT-29 cells. It is filed as cell-based, human. Conditions: 120 μM, viable cell count after trypan blue staining.
For data set [3], the system named is HT-29 cells. The experiment in a line: Cyclic nucleotide (cGMP, cAMP) levels in HT-29 cells by radioimmunoassay. Type of data set: cell-based, human. Conditions: HT-29 cells treated for 30 minutes. The protocol:
The amount of PDE activity can be determined by assaying for the amount of cyclic GMP in the extract of treated cells using a radioimmunoassay (RIA). In this procedure, a neoplastic cell line is incubated with a test compound. […]
It has been observed that a compound which is useful in the practice of this invention (i.e., one that selectively induces apoptosis in neoplastic cells, but not substantially in normal cells) follows a time course consistent with cGMP-specific PDE inhibition. […] The intracellular targets of these drug actions are being studied further, but current data support the concept that the initial rise in cGMP content and the subsequent fall in cAMP content precede apoptosis in neoplastic cells exposed to test compounds useful in this invention. To determine the cyclic AMP content in cell extracts, radioimmunoassay techniques similar to those described above for cGMP are used.

The subject of data set [4] is HT-29 cells. Briefly: Apoptosis and necrosis by morphology (acridine orange / ethidium bromide) in HT-29 cells. Conditions: 120 μM. It is filed as cell-based, human. The method, then: Treatment of cells with test compounds involves either pre- or post-confluent cultures and treatment for two to seven days at various concentrations of the compound in question. Apoptotic cells are measured by combining both the attached and “floating” compartments of the cultures. The protocol for treating tumor cell cultures with sulindac and related compounds to obtain a significant amount of apoptosis has been described in the literature. (See, Piazza, G. A., et al., Cancer Research, 55:3110-16, 1995, which is incorporated herein by reference). The novel features include collecting both floating and attached cells, identification of the optimal treatment times and dose range for observing apoptosis, and identification of optimal cell culture conditions. […]
Reference compounds and test compounds were analyzed for their cGMP-specific PDE inhibitory activity in accordance with the protocols for the assay, supra. […] Apoptotic and necrotic cell death was determined as previously described (Duke and Cohen, In: Current Protocols in Immunology, 3.17.1-3.17.16, New York, John Wiley and Sons, 1992). […]
The apoptosis inducing activity for a series of phosphodiesterase inhibitors was determined. […] Apoptosis and necrosis were determined morphologically after acridine orange and ethidium bromide labeling in accordance with the assay described, supra.

Data set [5] in a line: Side effects of exisulind on administration. It is filed as in vivo. Conditions: doses higher than the recommended therapeutic levels; reversible. The text has this:
This effect is reversible, and liver enzymes return to normal levels when the administered dose of exisulind returns to the traditionally recommended level or when treatment is discontinued. The most serious side effects of anthracycline antibiotics, on the other hand, is their myocardial toxicity and their myelosuppressive activity.

For the compound `CCN(CC)CCSC12CC(=O)OC1(C)/C(=C/c1ccc(S(C)(=O)=O)cc1)c1ccc(F)cc12` (racemic) [A, rac-threo-(E)-1-(N,N′-diethylaminoethanethio)-1-(butan-1′,4′-olido)-[3′,4′:1,2]-6-fluoro-2-methyl-3-(p-methylsulfonylbenzylidene)-indan], the “Fold induction at 100 μM” value in the data set with HT-29 cells [1] is less than 2.0 fold.

Regarding `CSc1ccc(/C=C2/C(C)=C(CC(=O)O)c3cc(F)ccc32)cc1` [Sulindac sulfide], in the data set on HT-29 cells [2], the “growth inhibition, time course” value was “capable of inhibiting tumor cell growth”. Besides, the “effect on levels of cAMP” value in the data set on HT-29 cells [3] was “unaffected”. For the same compound, the “apoptosis, time course” value in the data set with HT-29 cells [4] is reported as “increase in apoptosis”.

In the case of `CCCCCC[C@@H]([C@@H](C)O)n1cnc2c(N)ncnc21` (racemic) [EHNA], the “Fold induction at 100 μM” value in the data set with HT-29 cells [1] is recorded as less than 2.0 fold.

For `CC1=C(CC(=O)O)c2cc(F)ccc2/C1=C\c1ccc(S(C)(=O)=O)cc1` [Exisulind, (Z)-5-fluoro-2-methyl-1-[[4-(methylsulfonyl)phenyl]methylene]indene-3-yl acetic acid], the “side effects at doses higher than recommended” value in data set [5] is “elevated levels of liver enzymes”.

`COc1ccc(C2CNC(=O)C2)cc1OC1CCCC1` (stereo not shown) [Rolipram]: in the data set on HT-29 cells [3], the “effect on levels of cAMP” value is recorded as “increased cAMP levels”.
